What was measured:
Test in all cases: Bliss excess, mean over the matrix (fraction); higher = more synergy
[1] = test system: HCT-15 (Colorectal Carcinoma)
Outline: (§1)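 Cell lines grown in DMEM/F12 or RPMI with 10% FBS were plated in 1536-well plates and held 24 hours at 37°C, 5% CO2 before 72 hours of exposure to two-drug dose matrices, with DMSO typically at 0.2%. CellTiter-Glo 2.0 luminescence gave viability, which was converted to inhibition. Vehicle wells were set to 0 and blank wells to 1. Combination Emax is the second-highest inhibition in the matrix, and Bliss excess is the observed combination effect minus the expected EA + EB − EA·EB, where EA and EB are the single-agent effects.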

[2] = test system: SU-DHL-10 (B-Cell Non-Hodgkin's Lymphoma)
Outline: as §1

SF268 (Low Grade Glioma) = test system: SF268 (Low Grade Glioma)
Outline: as §1

[3] = test system: SK-PN-DW (Other Solid Carcinomas)
Outline: as §1

[4] = test system: HSC-39 (Gastric Carcinoma)
Outline: as §1

SF539 (Glioblastoma) = test system: SF539 (Glioblastoma)
Outline: as §1

[5] = test system: L-1236 (Hodgkin's Lymphoma)
Outline: as §1

A2058 (Melanoma) = test system: A2058 (Melanoma)
Outline: as §1

[6] = test system: 23132-87 (Gastric Carcinoma)
Outline: as §1

WM793B (Melanoma) = test system: WM793B (Melanoma)
Outline: as §1

[7] = test system: OVMIU (Ovarian Carcinoma)
Outline: as §1

[8] = test system: PC-3_[JPC-3] (Lung Adenocarcinoma)
Outline: as §1

IST-MES1 (Mesothelioma) = test system: IST-MES1 (Mesothelioma)
Outline: as §1

WM278 (Melanoma) = test system: WM278 (Melanoma)
Outline: as §1

[9] = test system: NCI-H23 (Lung Adenocarcinoma)
Outline: as §1

[10] = test system: RCM-1 (Colorectal Carcinoma)
Outline: as §1

[11] = test system: RERF-GC-1B (Gastric Carcinoma)
Outline: as §1

[12] = test system: NCI-H2342 (Lung Adenocarcinoma)
Outline: as §1

[13] = test system: LXF-289 (Lung Adenocarcinoma)
Outline: as §1

GB-1 (Glioblastoma) = test system: GB-1 (Glioblastoma)
Outline: as §1

Compound	Bliss excess [1]	Bliss excess [2]	Bliss excess (SF268 (Low Grade Glioma))	Bliss excess [3]	Bliss excess [4]	Bliss excess (SF539 (Glioblastoma))	Bliss excess [5]	Bliss excess (A2058 (Melanoma))	Bliss excess [6]	Bliss excess (WM793B (Melanoma))	Bliss excess [7]	Bliss excess [8]	Bliss excess (IST-MES1 (Mesothelioma))	Bliss excess (WM278 (Melanoma))	Bliss excess [9]	Bliss excess [10]	Bliss excess [11]	Bliss excess [12]	Bliss excess [13]	Bliss excess (GB-1 (Glioblastoma))
Cc1cc2ncnn2cc1Nc1ncc2c(n1)n(C1CCOCC1)c(=O)n2C [AZD7648] + CN(C)CCCOc1ccc(-c2ccc3ncc4c(c3c2)n(C2CCOCC2)c(=O)n4C)cn1 [AZD0156] (first compound max 10 µM, 7x7, partner max 1 µM)	-0.019	0.001	0.0098	0.0349	-0.036	0.0407	0.0025	-0.001	-0.0108	-0.029	-0.0068	-0.0019	-0.0353	-0.0295	-0.0031	-0.0041	-0.0141	-0.0237	0.034	-0.0089
CC(=O)c1c(C)c2cnc(Nc3ccc(N4CCNCC4)cn3)nc2n(C2CCCC2)c1=O [Palbociclib] + Cc1c2c(nn1C)CSCc1cc(n(C)n1)CSc1cc(c3ccccc3c1)OCCCc1c(C(=O)O)n(C)c3c-2c(Cl)ccc13 [AZD5991] (first compound max 10 µM, 7x7, partner max 1 µM)	0.0011	-0.0199	0.0193	-0.0194	-0.0383	-0.0637	-0.0341	0.0085	-0.198	-0.0134	-0.0416	-0.0377	-0.0111	-0.0395	-0.0562	-0.0561	-0.0116	-0.0063	0.008	-0.102
C[C@@H](c1ccc2nccn2c1)n1nnc2ncc(-c3cnn(C)c3)nc21 [Savolitinib] + CC1(C)CCC(CN2CCN(c3ccc(C(=O)NS(=O)(=O)c4ccc(NCC5CCOCC5)c([N+](=O)[O-])c4)c(Oc4cnc5[nH]ccc5c4)c3)CC2)=C(c2ccc(Cl)cc2)C1 [Venetoclax] (first compound max 1 µM, 7x7, partner max 1 µM)	-0.012	-0.0048	-0.095	-0.0349	0.0096	-0.0697	0.0176	-0.0611	-0.0578	-0.0603	-0.0569	-0.0457	-0.0318	-0.0614	-0.0486	-0.0416	-0.0303	-0.0631	-0.0339	-0.0626
CC(=O)c1c(C)c2cnc(Nc3ccc(N4CCNCC4)cn3)nc2n(C2CCCC2)c1=O [Palbociclib] + CC1(C)CCC(CN2CCN(c3ccc(C(=O)NS(=O)(=O)c4ccc(NCC5CCOCC5)c([N+](=O)[O-])c4)c(Oc4cnc5[nH]ccc5c4)c3)CC2)=C(c2ccc(Cl)cc2)C1 [Venetoclax] (first compound max 10 µM, 7x7, partner max 1 µM)	0.0105	-0.0873	-0.0344	-0.0063	-0.0476	-0.0164	0.0003	-0.0231	-0.0416	0.0241	-0.0402	-0.0487	-0.0203	-0.0338	-0.0199	-0.0717	-0.048	-0.0564	-0.0189	-0.0448
Cc1c2c(nn1C)CSCc1cc(n(C)n1)CSc1cc(c3ccccc3c1)OCCCc1c(C(=O)O)n(C)c3c-2c(Cl)ccc13 [AZD5991] + Cn1cnc2c(F)c(Nc3ccc(Br)cc3Cl)c(C(=O)NOCCO)cc21 [Selumetinib] (first compound max 1 µM, 7x7, partner max 3 µM)	0.0116	-0.021	-0.0199	-0.0271	0.0118	-0.0344	0	0.213	0.0334	-0.0053	-0.0284	-0.0477	-0.0466	0.0368	0.0495	0.0025	0.034	-0.0673	0.0414	-0.0299
CS(=O)(=O)CCNCc1ccc(-c2ccc3ncnc(Nc4ccc(OCc5cccc(F)c5)c(Cl)c4)c3c2)o1 [Lapatinib] + C[C@@H](Oc1cc(-c2cnn(C3CCNCC3)c2)cnc1N)c1c(Cl)ccc(F)c1Cl [Crizotinib] (first compound max 10 µM, 7x7, partner max 10 µM)	-0.0205	-0.0087	-0.056	-0.0722	-0.0117	-0.0621	0.0239	-0.0237	0.0195	-0.0192	-0.0097	-0.0824	-0.0937	-0.0284	-0.0265	-0.0107	-0.0237	-0.0006	-0.0848	-0.11
CC1(C)CCC(CN2CCN(c3ccc(C(=O)NS(=O)(=O)c4ccc(NCC5CCOCC5)c([N+](=O)[O-])c4)c(Oc4cnc5[nH]ccc5c4)c3)CC2)=C(c2ccc(Cl)cc2)C1 [Venetoclax] + COc1cc(Nc2ncc3c(n2)-c2ccc(Cl)cc2C(c2c(F)cccc2OC)=NC3)ccc1C(=O)O [Alisertib] (first compound max 1 µM, 7x7, partner max 10 µM)	-0.0034	0.0409	0.0151	-0.127	-0.103	0.0396	-0.05	-0.0871	-0.0303	-0.0223	-0.151	-0.0502	-0.0479	0.0416	0.14	-0.0717	-0.0274	-0.0792	-0.0953	-0.03
CC1(C)CCC(CN2CCN(c3ccc(C(=O)NS(=O)(=O)c4ccc(NCC5CCOCC5)c([N+](=O)[O-])c4)c(Oc4cnc5[nH]ccc5c4)c3)CC2)=C(c2ccc(Cl)cc2)C1 [Venetoclax] + C[C@@H]1COCCN1C2=NC(=NC(=C2)C3(CC3)[S@](=N)(=O)C)C4=C5C=CNC5=NC=C4 [AZD6738] (first compound max 1 µM, 7x7, partner max 10 µM)	-0.0084	0.0138	-0.0723	-0.0045	0.0079	-0.0339	-0.019	-0.0008	-0.0422	-0.0044	-0.111	-0.0438	-0.0101	-0.0712	0.0157	-0.0542	-0.0579	-0.0209	-0.0138	-0.0281
C[C@@H]1COCCN1c1cc(C2([S@](C)(=N)=O)CC2)nc(-c2ccnc3[nH]ccc23)n1 [AZD6738] + O=C(c1cc(Cc2n[nH]c(=O)c3ccccc23)ccc1F)N1CCN(C(=O)C2CC2)CC1 [Olaparib] (first compound max 10 µM, 7x7, partner max 10 µM)	0.0151	-0.0235	0.0011	0.008	0.025	-0.0047	-0.0033	0.0033	0.0507	-0.0214	-0.0083	0.0112	0.0228	-0.0488	0.0049	-0.101	-0.0439	-0.0089	-0.0371	0.012
CCc1c2c(nc3ccc(O)cc13)-c1cc3c(c(=O)n1C2)COC(=O)[C@]3(O)CC [SN-38] + CN(C)CCCOc1ccc(-c2ccc3ncc4c(c3c2)n(C2CCOCC2)c(=O)n4C)cn1 [AZD0156] (first compound max 0.3 µM, 7x7, partner max 1 µM)	0.0187	-0.0242	0.0609	0.0355	0.0344	0.0216	-0.079	0.0477	0.0322	-0.0295	-0.0047	-0.0551	0.0085	0.042	-0.0247	-0.0005	0.0092	-0.0425	0.0639	-0.0374
CC1(C)CCC(CN2CCN(c3ccc(C(=O)NS(=O)(=O)c4ccc(NCC5CCOCC5)c([N+](=O)[O-])c4)c(Oc4cnc5[nH]ccc5c4)c3)CC2)=C(c2ccc(Cl)cc2)C1 [Venetoclax] + CN(C)CCCOc1ccc(-c2ccc3ncc4c(c3c2)n(C2CCOCC2)c(=O)n4C)cn1 [AZD0156] (first compound max 1 µM, 7x7, partner max 1 µM)	-0.0192	-0.0043	0.0022	-0.0437	0.015	0.0126	-0.0182	0.0014	-0.0015	-0.0499	-0.111	-0.103	-0.0382	-0.0496	-0.0114	-0.0086	-0.0356	-0.0546	-0.0157	-0.0206
Cn1cnc2c(F)c(Nc3ccc(Br)cc3Cl)c(C(=O)NOCCO)cc21 [Selumetinib] + CCN(CCO)CCCOc1ccc2c(Nc3cc(CC(=O)Nc4cccc(F)c4)[nH]n3)ncnc2c1 [AZD2811] (first compound max 10 µM, 7x7, partner max 1 µM)	0.0193	-0.0915	-0.027	-0.0744	-0.0355	-0.0193	0.0086	0.0945	-0.0264	-0.0465	-0.038	-0.0748	-0.0718	-0.0003	0.0194	-0.0259	0.0288	-0.0569	0.0253	-0.0512
COc1cc2c(cc1OCCCCCOc1cc3c(cc1OC)C(=O)N1C=C(C)C[C@H]1C=N3)N=C[C@@H]1CC(C)=CN1C2=O [SG3199] + O=C(c1cc(Cc2n[nH]c(=O)c3ccccc23)ccc1F)N1CCN(C(=O)C2CC2)CC1 [Olaparib] (first compound max 0.001 µM, 7x7, partner max 10 µM)	0.0701	-0.0177	-0.0297	-0.0295	-0.0067	-0.0049	-0.0387	-0.0172	0.0217	-0.0198	-0.0898	-0.0368	-0.0402	-0.0299	0.0008	-0.0371	0.0263	-0.0569	-0.0358	-0.0328
CN(CCO)CC[C@H](CSc1ccccc1)Nc1ccc(S(=O)(=O)NC(=O)c2ccc(N3CCC([C@@H](O)c4ccccc4-c4ccc(Cl)cc4)CC3)cc2)cc1S(=O)(=O)C(F)(F)F [AZD4320] + C[C@@H]1COCCN1C2=NC(=NC(=C2)C3(CC3)[S@](=N)(=O)C)C4=C5C=CNC5=NC=C4 [AZD6738] (first compound max 1 µM, 7x7, partner max 10 µM)	0.0099	0.0076	0.023	-0.0551	-0.0108	-0.0706	0.0169	-0.0088	0.0832	-0.0406	0.0069	-0.0469	-0.0338	-0.0404	-0.0073	-0.0391	0.072	-0.0429	0.0029	-0.0314
